Results as given in patent publication EP0614465B1, “HYBRID PROTEIN BETWEEN CS FROM […] HBsAG” (SMITHKLINE BEECHAM BIOLOGICALS S.A., priority 1991, dated 1993).

Tested on: R32tet32 antigen
Assay: immunogenicity in mice: anti-R32tet32 (anti-repeat) antibody titer by ELISA
Type: in vivo, Balb/C mice
Details: effect of 3D-MPL (50 µg/dose) added to (RTS,S) on A1(OH)3

## 3 Deacylated monophosphoryl lipid A [3D-MPL]
  primary antibody response in mice: enhanced
